Source: the NIST ThermoML archive (doi:10.1021/je101035p)
Numbers after ± are expanded uncertainties.

Experiments:
[1] = Liquid; for Normal boiling temperature: Distillation
[2] = refractive index (Na D-line) (dimensionless); settings: 101.33 kPa, Liquid, Standard Abbe refractometry

CCO [ethanol]
Normal boiling temperature [1]: 78.29 ± 1.1 °C
refractive index ([2]; 293.2 K): 1.36115 ± 0.0007

C=CC(C)(CCC=C(C)C)OC(C)=O (stereo not given) [linalool acetate]
mass density ([1]; 293.2 K, 101.33 kPa, Vibrating tube method): 895.06 ± 4.4 kg/m3
Normal boiling temperature [1]: 220.00 ± 1.2 °C
refractive index ([2]; 294 K): 1.45445 ± 0.0012
